Measurements from US20240287071A1, “CLASS OF IMIDAZOLIDINOPYRIMIDONE COMPOUNDS AND USE THEREOF IN TREATMENT OF HSCLPP-MEDIATED DISEASES” (SICHUAN UNIVERSITY, priority 2021, published 2024).

Target: HsClpP (Homo sapiens, UniProt Q16740)
Assay: HsClpP enzyme hydrolysis of short peptide substrate AC-WLA-AMC
Conditions: promoting hydrolysis of short peptide substrate by HsClpP, relative to blank control
Description: This study evaluated the regulatory activity of the compounds on HsClpP by examining the hydrolysis effects of HsClpP protein on the AC-WLA-AMC substrate . […] The small molecules and the HsClpP protein solution were added to a flat-bottomed black 96-well plate, with three replicate wells for each group. […] DMSO was used as a negative control instead of small molecules. The multiple of readings at different concentrations against the readings of DMSO group was recorded as an index for evaluation of hydrolysis activity. . . . GraphPad Prism was used to plot the obtained multiple values and calculate the EC50 values.

Chain of HsClpP (Q16740 57-277): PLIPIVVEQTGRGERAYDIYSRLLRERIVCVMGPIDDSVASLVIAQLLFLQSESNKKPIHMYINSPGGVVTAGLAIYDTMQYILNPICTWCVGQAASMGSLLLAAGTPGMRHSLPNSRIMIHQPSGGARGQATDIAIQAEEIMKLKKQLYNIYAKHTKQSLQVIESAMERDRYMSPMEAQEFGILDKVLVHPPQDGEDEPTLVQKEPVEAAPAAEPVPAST

Row | SMILES | Regulatory efficacy 1 μM | Regulatory efficacy 10 μM
1 | O=c1nc2n(c3c1CN(Cc1ccccc1)CC3(F)F)CCN2Cc1ccccc1 [Compound 68, 3,7-Dibenzyl-9,9-difluoro-2,3,6,7,8,9-hexahydroimidazo[1,2-a]pyrido[3,4-e]pyrimidin-5(1H)-one] | + + | + +
2 | O=c1nc2n(c3c1CN(Cc1ccccc1)CC3)CCN2Cc1cccnc1 [Compound 23, 7-benzyl-3-(3-pyridinylmethyl)-2,3,6,7,8,9-hexahydroimidazo[1,2-a]pyrido[3,4-e]pyrimidin-5(1H)-one] | + (+ indicating that the increased efficacy is less than 50% of the blank control group) | + +
3 | O=c1nc2n(c3c1CN(Cc1ccccc1)CC3)CCN2Cc1ccccc1Cl [Compound 61, 7-Benzyl-3-(2-chlorobenzyl)-2,3,6,7,8,9-hexahydroimidazo[1,2-a]pyrido[3,4-e]pyrimidin-5(1H)-one] | + + | + +
4 | O=c1nc2n(c3c1CN(Cc1ccccc1)CC3(F)F)CCN2Cc1ccc(F)c(Br)c1 [Compound 49, 7-Benzyl-9,9-difluoro-3-(3-bromo-4-fluorobenzyl)-2,3,6,7,8,9-hexahydroimidazo[1,2-a]pyrido[3,4-e]pyrimidin-5(1H)-one] | + + | + +
5 | Cc1ccccc1CN1CCn2c1nc(=O)c1c2CCN(CC(C)C)C1 [Compound 29, 7-isobutyl-3-(2-methylbenzyl)-2,3,6,7,8,9-hexahydroimidazo[1,2-a]pyrido[3,4-e]pyrimidin-5(1H)-one] | + (+ indicating that the increased efficacy is less than 50% of the blank control group) | + (+ indicating that the increased efficacy is less than 50% of the blank control group)
6 | O=c1nc2n(c3c1CN(Cc1ccccc1)CC3(F)F)CCN2CC1CCCCC1 [Compound 66, 7-Benzyl-3-(cyclohexylmethyl)-9,9-difluoro-2,3,6,7,8,9-hexahydroimidazo[1,2-a]pyrido[3,4-e]pyri midin-5(1H)-one] | + + | + +
7 | O=c1nc2n(c3c1CN(Cc1ccccc1)CC3)CCN2Cc1cccc(Br)c1 [Compound 59, 7-Benzyl-3-(3-bromobenzyl)-2,3,6,7,8,9-hexahydroimidazo[1,2-a]pyrido[3,4-e]pyrimidin-5(1H)-one] | + + | + +
8 | Cc1ccccc1CN1CCn2c1nc(=O)c1c2C(F)(F)CN(Cc2ccccc2)C1 [Compound 47, 7-Benzyl-9,9-difluoro-3-(2-methylbenzyl)-2,3,6,7,8,9-hexahydroimidazo[1,2-a]pyrido[3,4-e]pyrimid in-5(1H)-one] | + + | + +
9 | O=c1nc2n(c3c1CN(Cc1ccccc1)CC3(F)F)CCN2Cc1ccc(C(F)(F)F)cc1 [Compound 73, 7-Benzyl-9,9-difluoro-3-(4-(trifluoromethyl)benzyl)-2,3,6,7,8,9-hexahydroimidazo[1,2-a]pyrido[3,4-e]pyrimidin-5(1H)-one] | + + | + +
10 | CC(C)CCN1CCn2c1nc(=O)c1c2C(F)(F)CN(Cc2cccc(C#N)c2)C1 [Compound 55, 3-((9,9-difluoro-3-isopentyl-5-oxo-2,3,6,7,8,9-hexahydroimidazo[1,2-a]pyrido[3,4-e]pyrimidin-7(6H)-yl)methyl)benzonitrile] | + + | + +
11 | O=c1nc2n(c3c1CN(Cc1ccccc1)CC3)CCN2Cc1ccco1 [Compound 25, 7-benzyl-3-(2-furfuryl)-2,3,6,7,8,9-hexahydroimidazo[1,2-a]pyrido[3,4-e]pyrimidin-5(1H)-one] | + (+ indicating that the increased efficacy is less than 50% of the blank control group) | + +
12 | N#Cc1cccc(CN2Cc3c(n4c(nc3=O)N(Cc3ccccc3)CC4)C(F)(F)C2)c1 [Compound 52, 3-((3-benzyl-9,9-difluoro-5-oxo-2,3,6,7,8,9-hexahydroimidazo[1,2-a]pyrido[3,4-e]pyrimidin-7(6H)-yl)methyl)benzonitrile] | + + | + +
13 | O=c1nc2n(c3c1CN(Cc1ccccc1)CC3(F)F)CCN2c1ccccc1 [Compound 67, 7-Benzyl-9,9-difluoro-3-phenyl-2,3,6,7,8,9-hexahydroimidazo[1,2-a]pyrido[3,4-e]pyrimidin-5(1H)-one] | + + | + +
14 | N#Cc1cccc(CN2Cc3c(n4c(nc3=O)N(Cc3ccc(F)c(F)c3)CC4)C(F)(F)C2)c1 [Compound 50, 3-((3-(3,4-difluorobenzyl)-9,9-difluoro-5-oxo-2,3,6,7,8,9-hexahydroimidazo[1,2-a]pyrido[3,4-e]pyrimidin-7(6H)-yl)methyl)benzonitrile] | + + | + +
15 | Cc1ccc(CN2CCn3c2nc(=O)c2c3C(F)(F)CN(Cc3cccc(C#N)c3)C2)cc1 [Compound 56, 3-((9,9-difluoro-3-(4-methylbenzyl)-5-oxo-2,3,6,7,8,9-hexahydroimidazo[1,2-a]pyrido[3,4-e]pyrimidin-7(6H)-yl)methyl)benzonitrile] | + + | + +
16 | Cc1cccc(CN2CCn3c2nc(=O)c2c3C(F)(F)CN(Cc3ccccc3)C2)c1 [Compound 48, 7-Benzyl-9,9-difluoro-3-(3-methylbenzyl)-2,3,6,7,8,9-hexahydroimidazo[1,2-a]pyrido[3,4-e]pyrimid in-5(1H)-one] | + + | + +
17 | N#Cc1cccc(CN2Cc3c(n4c(nc3=O)N(Cc3cccc(F)c3)CC4)C(F)(F)C2)c1 [Compound 53, 3-((3-(3-fluorobenzyl)-9,9-difluoro-5-oxo-2,3,6,7,8,9-hexahydroimidazo[1,2-a]pyrido[3,4-e]pyrimidin-7(6H)-yl)methyl)benzonitrile] | + + | + +
18 | Cc1ccc(CN2CCc3c(c(=O)nc4n3CCN4Cc3ccccc3C)C2)cc1 [Compound 33, 3-(2-methylbenzyl)-7-(4-methylbenzyl)-2,3,6,7,8,9-hexahydroimidazo[1,2-a]pyrido[3,4-e]pyrimidin-5(1H)-one] | + + | + +
19 | Cc1ccccc1CN1CCCn2c1nc(=O)c1c2CCN(Cc2ccccc2)C1 [Compound 46, 3-Benzyl-7-(2-methylbenzyl)-1,2,3,4,7,8,9, 10-octahydro-5H-pyrido[3,4-e]pyrimido[1,2-a] pyrimidin-5-one] | + (+ indicating that the increased efficacy is less than 50% of the blank control group) | + +
20 | CCN1CCn2c1nc(=O)c1c2C(F)(F)CN(Cc2ccccc2)C1 [Compound 65, 7-Benzyl-3-ethyl-9,9-difluoro-2,3,6,7,8,9-hexahydroimidazo[1,2-a]pyrido[3,4-e]pyrimidin-5(1H)-one] | + (+ indicating that the increased efficacy is less than 50% of the blank control group) | + +
21 | O=c1nc2n(c3c1CN(Cc1ccccc1)CC3(F)F)CCN2Cc1ccc(Br)cc1 [Compound 78, 7-Benzyl-3-(4-bromobenzyl)-9,9-difluoro-2,3,6,7,8,9-hexahydroimidazo[1,2-a]pyrido[3,4-e]pyrimidin-5(1H)-one] | + + | + +
22 | CS(=O)(=O)c1ccc(CN2CCn3c2nc(=O)c2c3C(F)(F)CN(Cc3ccccc3)C2)cc1 [Compound 75, 7-Benzyl-9,9-difluoro-3-(4-(methylsulfonyl)benzyl)-2,3,6,7,8,9-hexahydroimidazo[1,2-a]pyrido[3,4-e]pyrimidin-5(1H)-one] | + + | + +
23 | CCN1CCn2c1nc(=O)c1c2CCN(Cc2ccccc2)C1 [Compound 3, 7-benzyl-3-ethyl-2,3,6,7,8,9-hexahydroimidazo[1,2-a]pyrido[3,4-e]pyrimidin-5(1H)-one] | + (+ indicating that the increased efficacy is less than 50% of the blank control group) | + (+ indicating that the increased efficacy is less than 50% of the blank control group)
24 | Cc1ccccc1CN1CCn2c1nc(=O)c1c2CCN(Cc2ccncc2)C1 [Compound 44, 3-(2-methylbenzyl)-7-(pyridin-4-methyl)-2,3,6,7,8,9-hexahydroimidazo[1,2-a]pyrido[3,4-e]pyrimidi n-5(1H)-one] | + (+ indicating that the increased efficacy is less than 50% of the blank control group) | + +
25 | Cc1ccccc1CN1CCn2c1nc(=O)c1c2CCN(Cc2ccc(F)cc2F)C1 [Compound 37, 7-(2,4-difluorobenzyl)-3-(2-methylbenzyl)-2,3,6,7,8,9-hexahydroimidazo[1,2-a]pyrido[3,4-e]pyrimidin-5(1H)-one] | + (+ indicating that the increased efficacy is less than 50% of the blank control group) | + +
26 | Cc1ccccc1CN1CCn2c1nc(=O)c1c2CCN(Cc2cccnc2)C1 [Compound 43, 3-(2-methylbenzyl)-7-(pyridin-3-methyl)-2,3,6,7,8,9-hexahydroimidazo[1,2-a]pyrido[3,4-e]pyrimidi n-5(1H)-one] | + (+ indicating that the increased efficacy is less than 50% of the blank control group) | + +
27 | COc1cccc(CN2CCn3c2nc(=O)c2c3CCN(Cc3ccccc3)C2)c1 [Compound 64, 7-Benzyl-3-(3-methoxybenzyl)-2,3,6,7,8,9-hexahydroimidazo[1,2-a]pyrido[3,4-e]pyrimidin-5(1H)-one] | + + | + +
28 | N#Cc1cccc(CN2Cc3c(n4c(nc3=O)N(Cc3ccc(Cl)c(Cl)c3)CC4)C(F)(F)C2)c1 [Compound 57, 3-((9,9-difluoro-3-(3,4-dichlorobenzyl)-5-oxo-2,3,6,7,8,9-hexahydroimidazo[1,2-a]pyrido[3,4-e]pyrimidin-7(6H)-yl)methyl)benzonitrile] | + + | + +
